This data set in a line: photoluminescence quantum yield (fraction); solvent given as SMILES.
Where [1] appears, read: in O=P(c1ccccc1)(c1ccccc1)c1ccccc1Oc1ccccc1P(=O)(c1ccccc1)c1ccccc1.

Structures are written as SMILES.

We go through 49 molecules from the Deep4Chem optical property database.

Where the note is “in ClCCl”, `N#C/C(=C(/C#N)c1ccc(-c2ccncc2)cc1)c1ccc(-c2ccncc2)cc1` registered a photoluminescence quantum yield of 0.002.
The same measure, in the same setting: under `COc1cc2c(cc1OC)C1=C[C@H](c3ccc(C)cc3)C3(C(C#N)=C(C#N)N1CC2)c1cc(Cl)ccc1-c1ccc(Cl)cc13` stands 0.00053.
For `F[B-]1(F)Oc2ccccc2-c2cc(-n3c4ccc(-c5ccccc5)cc4c4cc(-c5ccccc5)ccc43)cc[n+]21`, the photoluminescence quantum yield under setting [1] was determined as 0.7.
On to `COC(=O)[C@H](Cc1ccc2oc3c(c2c1)=CC1=C(c2ccc(OC)cc2)c2cc4c5cc(C[C@H](NC(=O)OC(C)(C)C)C(=O)OC)ccc5oc4n2[B-](F)(F)[N+]=31)NC(=O)OC(C)(C)C`, for which the photoluminescence quantum yield is 0.81 (in C1CCCCC1), 0.86 (in CCOC(C)=O) and 0.82 (in CO).
Molecule `COc1ccc(-c2cc(-c3ccc(C#N)cc3)nn2C)cc1` yielded a photoluminescence quantum yield (in ClCCl) of 0.3.
For the molecule `CC1(C)C2=[N+](CCCCCC(=O)NCCCNC(=O)CCCCCN3/C(=C/C=C/C=C/C=C/2)C(C)(C)c2cc(S(=O)(=O)[O-])ccc23)c2ccc(S(=O)(=O)[O-])cc21`, the photoluminescence quantum yield (in CO) came to 0.58 and the photoluminescence quantum yield (in O) is 0.36.
`c1ccc(-c2nc(-c3ccccc3)nc(-c3ccc(-n4c5ccccc5c5ccc6c7ccccc7n(-c7ccccc7)c6c54)cc3)n2)cc1` registered a photoluminescence quantum yield (in O=P(c1ccccc1)(c1ccccc1)c1ccc2oc3ccc(P(=O)(c4ccccc4)c4ccccc4)cc3c2c1) of 0.84.
Where the note is “in ClCCl”, `FC(F)(F)c1ccccc1B1c2ccccc2N(c2ccccc2)c2ccccc21` displayed a photoluminescence quantum yield of 0.79.
As for `c1cc2c3c(c1)-c1cccc4ccn(c14)B3n1ccc3cccc-2c31`, for the setting “in C1CCOC1”, the photoluminescence quantum yield worked out at 0.65.
Under “in ClCCl”, `CCCCCCN1C(=O)c2cccc3c(-c4ccc(-c5cc(-c6ccc(C)cc6)nn5-c5ccccc5)s4)ccc(c23)C1=O` gave a photoluminescence quantum yield of 0.18.
The molecule `CCCCCCCC1=C(C)C(=O)n2c1cc1[nH]c(C(=O)OC)c(C)c1c2=O` showed a photoluminescence quantum yield (in C1CCCCC1) of 0.02; a photoluminescence quantum yield (in CO) of 0.73; a photoluminescence quantum yield (in CS(C)=O) of 0.83; a photoluminescence quantum yield (in ClC(Cl)Cl) of 0.52; a photoluminescence quantum yield (in c1ccccc1) of 0.1.
For `CCCCCCOc1ccc2oc3c(c2c1)=CC1=C(c2ccccc2C)c2cc4c5cc(OCCCCCC)ccc5oc4n2[B-](F)(F)[N+]=31`, the photoluminescence quantum yield (in C1CCCCC1) stood at 0.96, the photoluminescence quantum yield (in CCOC(C)=O) was found to be 0.73 and the photoluminescence quantum yield (in CO) came to 0.29.
For the molecule `COC(=O)c1ccc(Oc2ccc3c4c(cccc24)C(=O)N(c2c(C(C)C)cccc2C(C)C)C3=O)cc1`, under “in ClCCl”, the photoluminescence quantum yield was determined as 0.55.
In turn, `CC(C)(C)c1ccc(-c2cc(-c3ccc(-c4cc(-c5ccc(C(C)(C)C)cc5)c(C(=O)NCc5cccs5)s4)s3)sc2C(=O)NCc2cccs2)cc1` returned a photoluminescence quantum yield (in ClCCl) of 0.33.
`COc1cc2c(cc1OC)C1=C[C@H](c3ccccc3)C3(C(C#N)=C(C#N)N1CC2)c1cc(Br)ccc1-c1ccc(Br)cc13`: the photoluminescence quantum yield (in ClCCl) was 0.00059.
For the molecule `COC(=O)C(NC(=O)OC(C)(C)C)c1ccc2oc(-c3ccc(N(C)C)cc3OC)nc2c1` (configuration not stated), the photoluminescence quantum yield by setting is: (in CC1CCCCC1) 0.44; (in CC#N) 0.88; (in CO) 0.97.
Under setting [1], `O=c1c2cc(-n3c4ccccc4c4ccccc43)ccc2sc2ccc(-n3c4ccccc4c4ccccc43)cc12` registered a photoluminescence quantum yield of 0.412.
`Cc1cc(C2=C(c3cc(C)sc3C)S(=O)(=O)c3ccccc32)c(C)s1` showed a photoluminescence quantum yield (in C1CCOC1) of 0.016.
`CCOC(=O)C1=C(N)n2c(=O)c3ccccc3c(=O)n2C1c1ccc(C)cc1` (configuration not stated) yielded a photoluminescence quantum yield (in CS(C)=O) of 0.063.
The molecule `CCCCN(CCCC)c1ccc2c#cc3cc4c#cc5ccc(C(F)(F)F)cc5c#cc#cc5cc(C(F)(F)F)ccc5c#cc4cc3c#cc3ccc(N(CCCC)CCCC)cc3c#cc#cc2c1` came in with a photoluminescence quantum yield (in ClCCl) of 0.35.
`Cc1ccc(C2=[N+]3C(=Cc4c(C)cc(C)n4[B-]3(F)F)c3ccccc32)[nH]1`: the photoluminescence quantum yield by setting is: (in C1CCOC1) 0.82; (in CC#N) 0.84; (in CCCCCC) 0.91; (in CO) 0.83; (in Cc1ccccc1) 0.83; (in ClCCl) 0.89.
Where the note is “in Cc1ccccc1”, `CCCCCCCCN(CCCCCCCC)c1ccc(/C=C/c2ccc(C#Cc3ccc(-c4ccc(C#Cc5ccc(/C=C/c6ccc(N(CCCCCCCC)CCCCCCCC)cc6)cc5)cc4)cc3)cc2)cc1` yielded a photoluminescence quantum yield of 0.5.
As to `O=P1(c2ccccc2)C(c2ccccc2)=Cc2ccccc21` (configuration not stated), the photoluminescence quantum yield by setting is: (in C1CCOC1) 0.3; (in ClCCl) 0.85.
On to `C=CCNS(=O)(=O)c1ccc2c(c1)C(=O)/C(=C1\Sc3ccc(S(=O)(=O)NCC=C)cc3C1=O)S2`, for which the photoluminescence quantum yield worked out at 0.197 (in CN(C)C=O) and 0.006 (in CS(C)=O).
Turning to `CC1(C)c2ccccc2N(c2ccc(-c3nc4cc(C#N)c(C#N)cc4nc3-c3ccc(N4c5ccccc5C(C)(C)c5ccccc54)cc3)cc2)c2ccccc21`, the photoluminescence quantum yield (in Cc1ccccc1) was 0.91.
As to `C#CCNC1=C2C(C)=CC(C)=[N+]2[B-](F)(F)n2c(C)cc(C)c21`, the photoluminescence quantum yield came out at 0.23 (in C1CCCCC1); 0.063 (in CC(C)=O); 0.084 (in CCOC(C)=O); 0.051 (in CO); 0.074 (in OCC(F)(F)F).
The molecule `COc1ccc(-c2c(OC)ccc3nnn(C[C@H](N)C(=O)O)c23)cc1` registered a photoluminescence quantum yield (in CO) of 0.09.
Consider `C1=Cc2ccc3ccccc3c2N(c2ccccc2)B1c1ccccc1`, for which the photoluminescence quantum yield (in C1CCCCC1) was 0.04.
In turn, `CC1(C)CC(/C=C/c2ccc(N3CCOCCOCCOCCOCC3)cc2)=CC(=C(C#N)C#N)C1` returned a photoluminescence quantum yield (in CCO) of 0.111.
In turn, `Cc1ccc(-n2c3ccc(-c4ccc(-c5nc6ccccc6n5-c5ccccc5)cc4)cc3c3cc(-c4ccc(-c5nc6ccccc6n5-c5ccccc5)cc4)ccc32)cc1` showed a photoluminescence quantum yield (in Cc1ccccc1) of 0.65.
Molecule `Cc1cc(=O)oc2cc3c4ccc(C(C)(C)C)cc4c4cc(C(C)(C)C)ccc4c3cc12` displayed a photoluminescence quantum yield (in ClC(Cl)Cl) of 0.14.
In the case of `CN(C)c1ccc(-c2nc(-c3ccccc3)c3ccccn23)cc1`, where the note is “in ClCCl”, the photoluminescence quantum yield amounted to 0.12.
`COc1cc2c(cc1OC)C1=C[C@H](c3ccc(Cl)cc3)C3(C(C#N)=C(C#N)N1CC2)c1ccccc1-c1ccccc13`: under “in ClCCl”, the photoluminescence quantum yield worked out at 0.00044.
For the molecule `COC(=O)C(NC(=O)OC(C)(C)C)c1ccc2oc(-c3cc(C(F)(F)F)cc(C(F)(F)F)c3)nc2c1` (configuration not stated), the photoluminescence quantum yield reads like this: (in CC1CCCCC1) 0.54; (in CC#N) 0.46; (in CO) 0.44.
`CCN(CC)c1ccc2c(-c3ccccc3C(=O)O)c3c([o+]c2c1)/C(=C/c1ccc2c(c1)c1ccccc1n2CC)CCC3`: where the note is “in ClCCl”, the photoluminescence quantum yield was 0.08.
On to `c1ccc(-n2c3ccccc3c3ccccc32)cc1`, for which the photoluminescence quantum yield (in CCO) was determined as 0.46.
On to `C/C=C/C1=NC(=C\c2ccc([O-])cc2)/C(=O)N1C`, for which the photoluminescence quantum yield (in O) was determined as 0.0006.
With `CCCCCCOc1ccc(-c2cnc(-c3nnc(-c4ccc(OCCCCCC)cc4)o3)o2)cc1`, the photoluminescence quantum yield (in C1CCCCC1) worked out at 0.82; the photoluminescence quantum yield (in C1CCOC1) is 0.57; the photoluminescence quantum yield (in CC#N) was found to be 0.75; the photoluminescence quantum yield (in CCO) turned out to be 0.8; the photoluminescence quantum yield (in CO) was 0.65; the photoluminescence quantum yield (in ClC(Cl)Cl) stood at 0.49.
Turning to `COc1ccc2cc(C3=[N+]4C(=Nc5c(-c6ccccc6)cc(-c6ccc7cc(OC)ccc7c6)n5[B-]4(F)F)C(c4ccccc4)=C3)ccc2c1`, the photoluminescence quantum yield reads like this: (in ClC(Cl)Cl) 0.33; (in ClCCl) 0.33.
Consider `COc1ccccc1-c1nc2c3ccccc3c3ccccc3c2o1`, for which the photoluminescence quantum yield (in Cc1ccccc1) came to 0.53.
`Cc1ccc(-c2cc(/C=C/c3ccc(N(c4ccccc4)c4ccccc4)cc3)c(-c3ccc(C)cc3)cc2/C=C/c2ccc(N(c3ccccc3)c3ccccc3)cc2)cc1` registered a photoluminescence quantum yield (in ClCCl) of 0.74.
Turning to `O=S(=O)(c1cccc(N2c3ccccc3Oc3ccccc32)c1)c1cccc(N2c3ccccc3Oc3ccccc32)c1`, the photoluminescence quantum yield stood at 0.208 (in CCCCC(CC)n1c2ccc(-n3c4ccccc4c4ccccc43)cc2c2cc(-n3c4ccccc4c4ccccc43)ccc21) and 0.321 (in c1cc(-n2c3ccccc3c3ccccc32)cc(-n2c3ccccc3c3ccccc32)c1).
With `COc1ccccc1-c1nc(-c2ccc(C(F)(F)F)cc2)n(-c2ccc(C)cc2)c1-c1ccccc1OC`, the photoluminescence quantum yield runs as follows: (in CC(C)O) 0.65; (in CCCCCC) 0.49; (in CO) 0.6; (in CS(C)=O) 0.49; (in ClCCl) 0.27.
In the case of `CCCCc1cc(CCCC)c2ccc3c(CCCC)cc(CCCC)c4ccc1c2c43`, the photoluminescence quantum yield by setting is: (in CCCCCC) 0.55; (in CO) 0.67; (in ClCCl) 0.61.
`Cc1cc(C)c(-c2nnc(-c3ccc(-n4c5ccccc5c5ccccc54)cc3)o2)c(C)c1` gave a photoluminescence quantum yield (in Cc1ccccc1) of 0.59.
`NNC(=O)c1ccc(/C=C/c2ccc(C(=O)NN)cc2)cc1`: the photoluminescence quantum yield (in CN(C)C=O) worked out at 0.2.
In turn, `CC1(C)c2ccccc2N(c2ccc3nc4c5ccc(N6c7ccccc7C(C)(C)c7ccccc76)cc5c5cc(N6c7ccccc7C(C)(C)c7ccccc76)ccc5c4nc3c2)c2ccccc21` registered a photoluminescence quantum yield (in c1cc(-c2cccc(-n3c4ccccc4c4ccccc43)c2)cc(-n2c3ccccc3c3ccccc32)c1) of 0.89.
`CC1=C(C#Cc2ccc(B(c3c(C)cc(C)cc3C)c3c(C)cc(C)cc3C)cc2)C(C)=[N+]2C1=C(c1ccccc1)c1c(C)c(C#Cc3ccc(B(c4c(C)cc(C)cc4C)c4c(C)cc(C)cc4C)cc3)c(C)n1[B-]2(F)F` had a photoluminescence quantum yield (in ClCCl) of 0.65.
On to `Cc1ccc(C2=C3C=CC(c4ccccc4)=[N+]3[B-](F)(F)n3c2ccc3-c2ccccc2)cc1`, for which the photoluminescence quantum yield turned out to be 0.31 (in C1CCCCC1); 0.22 (in C1CCOC1); 0.25 (in C1COCCO1); 0.2 (in CCOC(C)=O); 0.21 (in CO); 0.42 (in Cc1ccccc1). For the same molecule, under “in ClC(Cl)Cl”, the photoluminescence quantum yield came out at 0.31.
